This assay relates to CEM cells HIV-1 protection, formazan growth assay. Put plainly: NCI AIDS Antiviral Assay. Particulars: for IC50: measured here: growth of uninfected CEM cells. In outline: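 Protection of CEM cells against HIV-1 measured as cell growth via soluble formazan read-out, with five concentrations tested on both infected and uninfected cells; failure to protect may reflect toxicity.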

Calls of active or inactive are those of the source.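 Rule for the calls: active = compounds giving half or more protection of infected cells from virus-caused growth loss, again on retest; inactive = the rest.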

For `CCCCCCCCCCCCCNC1=C(O)c2ccccc2C(=O)C1=O`, the result was inactive. The EC50 is the concentration at which the effect is half-maximal. For orientation: IC50 means the concentration needed to halve the response being measured. Low readings indicate greater potency in that assay, high ones weaker potency in that assay. `CCNC(C)(C)C(SSSC(c1ccc(Cl)cc1)C(C)(C)NCC)c1ccc(Cl)cc1` (centres undefined): the EC50 is greater than 200 µM and the IC50 was 9.12 µM.

Turning to `COc1ccc2nc3ccccc3c(NCCCN(CCCl)CCCl)c2c1`, the outcome was inactive.

In the case of `CC(=O)Nc1nc(Cl)c2ncn(C3CCCO3)c2n1` (centres undefined), the EC50 was greater than 200 µM and the IC50 stood at 22.4 µM.

As to `CCC1(CC)O[C@H]([C@@H](O)CCc2ccccc2O)[C@@H]([C@@H](O)CCc2ccccc2O)O1`, the EC50 was greater than 200 µM and the IC50 came out at 33.1 µM. For the compound `COC1=CC(=O)NCCN1`, the EC50 is 135 µM and the IC50 was found to be 479 µM. Regarding `CCCCCNC(=O)CCCCCCCCCCCNC(=O)CCCCCCCCCCN1C=CC(=CC=C2C=CC(=O)C=C2)C=C1`, the outcome was inactive. With `C=C1C[C@@H]2C[C@@H](C)CC(O)[C@]2(CCCNC(=O)CCOCc2ccccc2)C1O` (some centres undefined), the outcome was inactive. As for `Cc1ccc(-n2cc(-c3ccc(Cl)cc3)c3c(NN)ncnc32)cc1`, the EC50 was greater than 200 µM and the IC50 came to 3.72 µM.

Turning to `O=C1OC(=C(Cl)Cl)C2C3c4ccccc4C(c4ccccc43)C12` (centres undefined), the EC50 was greater than 100 µM and the IC50 is 47.9 µM. The corresponding values for `COC(=O)C(=O)/C=C(/O)c1ccc(OC)cc1` are greater than 200 µM and greater than 200 µM.

In the case of `COC(=O)C(=O)C(C(C)=O)C(=O)NCc1ccc(OC)c(OC)c1` (centres undefined), the EC50 was 61.7 µM and the IC50 was determined as 741 µM. The matching figures for `O=C(Nc1cccc([N+](=O)[O-])c1)/C(=N\NC(=O)c1ccncc1)c1nc2ccc([N+](=O)[O-])cc2[nH]c1=O`: greater than 135 µM and 47.9 µM. For the compound `C#CCN1CCN(C(=S)N/N=C(\C)c2ccccn2)CC1`, the EC50 is greater than 2.24 µM and the IC50 came out at 0.0724 µM. On to `CSC1=N/C(=C\c2ccc(C)cc2)C(=O)N1CN1CCOCC1`, for which the EC50 is greater than 200 µM and the IC50 worked out at 34.7 µM.

For `O=C(CN1CCOCC1)c1ccc2[nH]c(=O)oc2c1`, the EC50 is greater than 200 µM and the IC50 stood at 155 µM.

For `O=S1(=O)O[C@H]2CCCC[C@@H]2O1`, the EC50 is greater than 45.7 µM and the IC50 is greater than 45.7 µM. On to `OC1c2cccn2-c2cc(Cl)ccc2SC1c1ccccc1` (centres undefined), for which the EC50 is greater than 70.8 µM and the IC50 worked out at 4.47 µM.

Turning to `CN(C)C=NCCN1CCOCC1`, the EC50 was greater than 200 µM and the half-maximal inhibitory concentration (IC50) is greater than 200 µM. Regarding `C=CCONC(=O)c1ccc(Cl)cc1`, the EC50 was greater than 617 µM and the IC50 worked out at 525 µM. Turning to `CCOC(=O)/C(O)=C1\C(=O)N(C)C(=O)C1c1cccc(OC)c1` (centres undefined), the result was inactive. As for `O=C(O)/C(=C/c1c(O)ccc2ccccc12)c1csc(-c2nc(/C(=C\c3c(O)ccc4ccccc34)C(=O)O)cs2)n1`, the EC50 is greater than 43.7 µM and the IC50 was 23.4 µM. Turning to `CN(C)c1nc(=NCc2ccccn2)ss1`, the EC50 was greater than 17.4 µM and the IC50 worked out at 9.33 µM. As for `Cc1cc(C)n(-c2ccnc3cc(Cl)ccc23)n1`, the EC50 is greater than 501 µM and the IC50 worked out at 214 µM. The corresponding values for `CC(C)=C(OP1(=S)OCCN1C)C(C)(C)C(=O)N(C)C` (centres undefined) are greater than 776 µM and 537 µM. The corresponding values for `COCn1c(C)c(C)c2c(=O)oc(=O)[nH]c21` are greater than 200 µM and greater than 200 µM. As for `CCOC(=O)[C@H](O)[C@@H](O)C(=O)NCc1ccc(C(=O)c2ccccc2)cc1`, the EC50 is greater than 200 µM and the IC50 is greater than 200 µM.

As to `COc1ccc2c(c1)OC(=O)CC2c1ccc(OC)c(OC)c1` (centres undefined), the EC50 was greater than 200 µM and the IC50 was greater than 200 µM. For `Cn1c2ccccc2n2c3ncccc3c(=O)c(C#N)c12`, the EC50 is greater than 50.1 µM and the IC50 turned out to be 1.26 µM. The corresponding values for `CCOP(=O)(OCC)C(c1ccc(F)cc1)N(C(=O)NC(F)(F)F)c1ccc(OC)cc1` (centres undefined) are greater than 200 µM and greater than 200 µM.

`FC(F)(F)c1cccc(N2NC(=S)N3C=CC=CC32)c1` (centres undefined): the EC50 was greater than 83.2 µM and the IC50 was greater than 83.2 µM. On to `COc1cccc(NC(=O)c2c(SC)c(C#N)c(=O)n(N)c2N)c1`, for which the EC50 is greater than 200 µM and the IC50 is 107 µM. Take `COc1ccc(C2(CN(C)C)COc3cc(OC)c(OC)cc3C2=O)cc1OC` (centres undefined): the result was inactive. Take `COc1ccc(C2SCC(=O)N2NC(=O)c2ccc(NC(C)=O)cc2)cc1` (centres undefined): the EC50 is greater than 35.5 µM and the concentration for half-maximal inhibition (IC50) was greater than 35.5 µM. For the compound `Oc1ccc(C2Oc3cc(OC4OCC(O)C(O)C4O)cc(O)c3CC2O)cc1O` (centres undefined), the EC50 was greater than 200 µM and the IC50 was greater than 200 µM. Regarding `CC(=O)NNc1nc(C)c(C(/C=C/c2ccc3c(c2)OCO3)=N/NC(=O)c2ccncc2)s1`, the EC50 is greater than 50.1 µM and the IC50 was greater than 50.1 µM. In the case of `CSC(=S)CC(O)[C@@H]1CC2c3ccccc3C1c1ccccc12` (some centres undefined), the EC50 is greater than 200 µM and the IC50 came out at 3.47 µM. The corresponding values for `CC1(C)SCCCCCCCSC(C)(C)SCCCCCCCS1` are greater than 63.1 µM and greater than 63.1 µM. As for `CC(C)Oc1nc(N2CCNCC2)nc2c1CCC2`, the EC50 is greater than 200 µM and the IC50 was 39.8 µM. Turning to `Cc1ccc(S(=O)(=O)SCC(=O)c2ccc(Br)cc2)cc1`, the EC50 is 6.92 µM and the IC50 amounted to 93.3 µM. Turning to `COc1ccc(-c2cc(=O)cc(C(N)=O)o2)cc1`, the EC50 is greater than 200 µM and the IC50 was greater than 200 µM.

For the compound `OCC(CO)CC1COc2ccccc2O1` (centres undefined), the outcome was inactive.

As to `COc1ccc(/C=C(\Cl)c2ccc(OC)cc2)cc1`, the EC50 was greater than 200 µM and the IC50 was greater than 200 µM. Take `N#C/C(=C\c1ccc(O)c(O)c1)C(=O)Nc1ccc(C(=O)O)cc1`: the EC50 is greater than 200 µM and the IC50 came to 38.9 µM. `COc1nc(NC2OCC(OC(C)=O)C(OC(C)=O)C2OC(C)=O)c(-c2csc(N)n2)c(=O)n1C` (centres undefined): the result was inactive.

Consider `O=S(=O)(Oc1ccc2ccccc2c1-c1c(OS(=O)(=O)C(F)(F)F)ccc2ccccc12)C(F)(F)F`, for which the result was inactive. Regarding `O=C(O)CCSCCCCCCCCCCSCCC(=O)O`, the EC50 was greater than 74.1 µM and the IC50 was greater than 74.1 µM. Turning to `CC(=O)Nc1ccccc1`, the EC50 is greater than 1860 µM and the IC50 was greater than 1860 µM. Consider `COC(=O)CN(CC(O)C(NC(C)=O)C(O)C=O)C(=O)OCc1ccccc1` (centres undefined), for which the EC50 is greater than 200 µM and the IC50 was greater than 200 µM. On to `O=C1NC(=S)NC(=O)C1=Cc1ccc(Cl)c(Cl)c1`, for which the EC50 was greater than 87.1 µM and the IC50 is greater than 87.1 µM. For `S=C(S)N1CCN(c2ccccc2)CC1`, the EC50 was greater than 200 µM and the IC50 is greater than 200 µM. As to `COc1ccc(CC(COS(=O)(=O)c2ccc(C)cc2)NS(=O)(=O)c2ccc(C)cc2)cc1` (centres undefined), the EC50 is greater than 200 µM and the IC50 amounted to 26.9 µM. Turning to `CC1=C/N\C(C#N)=C(C#N)/N=C/C(C)=C\N\C(C#N)=C(C#N)/N=C\1`, the EC50 is greater than 200 µM and the IC50 was greater than 200 µM. On to `CCCCCCCCCC(=O)OCC1OC(n2cc(F)c(=O)[nH]c2=O)C(NC(=O)OCc2ccccc2)C(OC(=O)CCCCCCCCC)C1O` (centres undefined), for which the EC50 is greater than 9.77 µM and the IC50 is greater than 9.77 µM.

(Values after PubChem BioAssay AID179 (DTP/NCI, 2004).)
